Test results: article PMC7298650 (iScience, 2020)
pKd: −log10 of the molar value. Where two headings read alike, the source gives them in different places.

Experiments:
insulin receptor [1] = biological target: T1, insulin receptor (Homo sapiens, UniProt P06213); test: surface plasmon resonance; format: binding
insulin receptor [2] = biological target: T1, insulin receptor; test: surface plasmon resonance; format: binding; remark: listed apart in the source

T1 sequence (P06213 28-758): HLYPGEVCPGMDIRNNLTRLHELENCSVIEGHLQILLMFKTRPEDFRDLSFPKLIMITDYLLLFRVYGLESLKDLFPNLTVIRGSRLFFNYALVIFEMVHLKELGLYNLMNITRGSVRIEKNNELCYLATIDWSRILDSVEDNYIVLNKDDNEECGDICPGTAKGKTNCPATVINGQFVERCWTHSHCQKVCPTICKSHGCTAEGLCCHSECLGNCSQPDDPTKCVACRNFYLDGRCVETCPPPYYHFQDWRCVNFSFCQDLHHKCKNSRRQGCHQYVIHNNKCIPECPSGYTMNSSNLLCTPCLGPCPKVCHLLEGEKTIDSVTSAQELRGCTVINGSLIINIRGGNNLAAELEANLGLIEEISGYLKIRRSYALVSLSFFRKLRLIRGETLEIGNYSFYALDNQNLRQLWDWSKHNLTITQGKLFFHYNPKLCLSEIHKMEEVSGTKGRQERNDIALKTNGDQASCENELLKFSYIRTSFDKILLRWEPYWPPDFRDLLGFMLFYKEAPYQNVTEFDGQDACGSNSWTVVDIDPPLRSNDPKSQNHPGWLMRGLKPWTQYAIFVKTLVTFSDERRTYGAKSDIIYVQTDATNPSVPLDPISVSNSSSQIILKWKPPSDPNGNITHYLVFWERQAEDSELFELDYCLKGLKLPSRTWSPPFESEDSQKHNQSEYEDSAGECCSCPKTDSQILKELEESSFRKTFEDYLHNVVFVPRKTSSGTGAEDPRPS
T1 sequence (P06213 763-956): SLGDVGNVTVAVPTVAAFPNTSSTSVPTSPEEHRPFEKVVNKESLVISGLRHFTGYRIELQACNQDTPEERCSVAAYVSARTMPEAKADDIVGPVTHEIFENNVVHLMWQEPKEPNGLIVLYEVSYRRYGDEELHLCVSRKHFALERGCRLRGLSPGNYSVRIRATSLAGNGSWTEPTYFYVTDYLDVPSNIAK

Row | pKd (insulin receptor [1]) | pKd (insulin receptor [2]) | SMILES
1 | ~4.08 | – | CN(C)C(=N)N=C(N)N [Metformin]
2 | – | ~4.85 | O=c1c2ccccc2nc2n1CCc1c-2[nH]c2ccccc12 [Rut-0, Rutaecarpine]
